Columns and labels:
[1] = tested on: HCT116 colon cancer cells; experiment: HCT116 cell viability and proliferation assay (MTS); assay type: cell-based; conditions: Homo sapiens, HCT-116, 72 h, HCT116, 72 hours, read-out: Cell viability (MTS): HCT116 GI50 Day3
Protocol: HCT116 colon cancer cells were obtained from ATCC (American Type Culture Collection), and maintained in Mc Coy's 5A medium containing 10% FBS, 3 mM glutamine and 1% penicillin/streptomycin. Cells were incubated at 37° C. in a humidified atmosphere containing 5% CO2.
Cell viability was assayed using the MTS technique in 96-well culture plates (CellTiter 96® Aqueous Non-Radioactive Cell Proliferation Assay, Promega) according to the manufacturer's instructions. MTS (3-(4,5-dimethyl-thiazol-2-yl)-5-(3-carboxy-methoxyphenyl)-2-(4-sulfophenyl)-2H-tetra-zolium) is a MTT-derived tetrazolium that is reduced in metabolically active cells into a soluble, cell-permeant formazan. The amount of formazan, detected by its absorbance at 492 nm is proportional to the number of living, metabolically active cells.
10^3 HCT116 cells were seeded per well. 24 hours later, the medium was changed and the cells treated in triplicate with the concentrations of each compound from 100 μM to 50 nM. The compounds were diluted in 100% DMSO, whose final concentration on cells was kept at 0.5%.
Cells were incubated with the compounds for 72 hours, and their viability then assayed by the addition of MTS for 2 hours. Absorbance at 492 nm was measured directly from the 96-well culture plates. Gl50 (Growth Inhibition 50) concentrations for each compound were calculated using a sigmoidal variable slope fit (Prism 4.0, Graphpad Softwares). Values represent mean of three independent experiments.

USP7 = biological target: T1, USP7 (Homo sapiens, UniProt Q93009); experiment: USP7 assay with GST-Ub52-Flag substrate (HTRF); assay type: biochemical; conditions: USP7 200 pM
T1 construct: Full-length wild-type human USP7 and its catalytic mutant (cysteine 223 replaced by alanine, C223A) were produced as N-terminally His-tagged fusions; His (N); made in house; host or cells: Spodoptera frugiperda Sf9 (or High Five) insect cells, baculovirus pFastBac-HT-B
Protocol: (§1) For compounds 26 to 38, the in-vitro assays on USP7 and USP8 were carried out according to the following procedure
(§2) The present examples 26 to 38 makes it possible to validate the use of GST-Ub52-Flag in an assay based on the time-resolved measurement of fluorescence emitted by […] in homogenous medium.
(§3) The assay is carried out on multiwell assay plates. The plates are analyzed on a PHERAstar fluorimeter (BMG) after an overnight incubation at 4° C. (excitation 337 nm, emission 620 and 665 nm).
(§4) The reagents used were as follows: • Solution of USP7 at 200 pM and USP8 at 400 pM in 50 mM Tris HCl pH 7.6, Bovine Serum Albumin 0.05%, DTT 5 mM. • Anti-Flag-K (CIS bio international), solution at 0.2 μM in 0.8 M KF, 0.1 Bovine Serum Albumin, Tris HCl 25 mM pH 7.6. • Anti-GST antibody-XL665 conjugate (CIS bio international), solution at 2.6 μM in 0.8 M KF, 0.1% Bovine Serum Albumin, Tris HCl 25 mM pH 7.6. • GST-Ub52-flag solution at 14.75 μM & MBP_Ub52 at 37.7 μM are prepared by dilutions from the stock solution described above in 50 mM Tris HCl pH 7.6, EDTA 0.5 mM, Bovine Serum Albumin 0.05%, DTT 5 mM.
(§5) The enzyme reaction is carried out by mixing GST-Ub52-flag solution with 5 μl of USP7 solution (200 pM final) or 5 μl of USP8 (400 pM final). This mixture is incubated for one hour at room temperature on a multiwell assay plate. A 10 μl mixture of 5 μl of anti-Flag-K solution (0.2 μM) plus 5 μl of anti-GST-XL665 antibody (2.6 μM) is added to each well of the multiwell assay plate. The plate is read after an overnight incubation at 4° C. on a PHERAstar fluorimeter (BMG).
(§6) The decrease in the signal correlates with the increase in enzyme activity i.e. the cleavage of GST-Ub52-Flag substrate. The format used is therefore entirely suitable for a method of assaying an enzyme of the deubiquitinating type such as ubiquitin specific protease, but also for determining a modulator of this enzyme activity.
(§7) The same procedures as mentioned above for assaying the activity of enzymes of the deubiquitinating type are carried out but the various reaction mixtures are incubated with identical enzyme concentration, in the presence or absence of a test compounds 26 to 38. Data (mean values+/− standard deviation) were analyzed as % of control (no compound) and plotted as percentage versus the Log of the compound concentration using GraphPad (Prism).

USP8 = biological target: T2, USP8 (Homo sapiens, UniProt P40818); experiment: USP8 assay with GST-Ub52-Flag substrate (HTRF); assay type: biochemical; conditions: USP8 400 pM
T2 construct: His (from pFastBac-HT vector) (N); made in house; host or cells: Sf9 or High Five insect cells, baculovirus
T2 sequence (P40818 1-1118): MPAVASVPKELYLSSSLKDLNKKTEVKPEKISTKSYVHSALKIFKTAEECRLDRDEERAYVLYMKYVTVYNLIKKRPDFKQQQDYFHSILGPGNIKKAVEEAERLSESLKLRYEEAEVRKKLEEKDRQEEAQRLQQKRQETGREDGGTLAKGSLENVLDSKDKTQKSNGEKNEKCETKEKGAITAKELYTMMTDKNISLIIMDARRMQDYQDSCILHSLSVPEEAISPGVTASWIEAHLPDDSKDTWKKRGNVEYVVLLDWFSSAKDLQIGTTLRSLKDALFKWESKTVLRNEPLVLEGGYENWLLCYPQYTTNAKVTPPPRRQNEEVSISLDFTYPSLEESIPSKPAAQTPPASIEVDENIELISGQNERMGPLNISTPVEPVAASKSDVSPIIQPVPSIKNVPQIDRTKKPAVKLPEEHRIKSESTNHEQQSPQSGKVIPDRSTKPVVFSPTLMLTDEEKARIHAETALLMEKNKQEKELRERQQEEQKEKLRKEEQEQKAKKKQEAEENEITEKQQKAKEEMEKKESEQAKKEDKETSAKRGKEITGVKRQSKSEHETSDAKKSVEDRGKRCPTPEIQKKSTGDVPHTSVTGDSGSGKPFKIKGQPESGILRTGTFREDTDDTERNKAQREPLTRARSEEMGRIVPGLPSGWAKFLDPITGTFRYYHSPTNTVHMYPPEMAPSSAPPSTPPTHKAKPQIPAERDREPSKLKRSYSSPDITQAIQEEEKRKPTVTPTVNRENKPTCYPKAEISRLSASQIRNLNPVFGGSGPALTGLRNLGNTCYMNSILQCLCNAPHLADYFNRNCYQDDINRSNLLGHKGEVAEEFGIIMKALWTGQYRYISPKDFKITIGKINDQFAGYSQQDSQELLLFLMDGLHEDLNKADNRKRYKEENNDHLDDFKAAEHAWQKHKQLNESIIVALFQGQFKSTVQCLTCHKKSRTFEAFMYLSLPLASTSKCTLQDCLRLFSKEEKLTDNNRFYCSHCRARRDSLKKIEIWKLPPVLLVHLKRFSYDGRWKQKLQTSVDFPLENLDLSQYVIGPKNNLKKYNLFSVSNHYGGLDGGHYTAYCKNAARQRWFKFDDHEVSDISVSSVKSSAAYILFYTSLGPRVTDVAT
Protocol: as §1, §2, §3, §4, §5, §6, §7

O=C(NCC1CCN(CCCc2ccccc2)CC1)c1ccc2c(Cl)c3c(nc2c1)CCCC3 [Example 33, 9-chloro-N-((1-(3-phenylpropyl)piperidin-4-yl)methyl)-5,6,7,8-tetrahydroacridine-3-carboxamide] was tested, and the GI50 [1] was 2 µM, the IC50 (USP7) was 16.4 µM and the IC50 (USP8) was > 200 µM.
With O=C(NCCN1CCCCC1)c1ccc2c(Cl)c3c(nc2c1)CCCC3 [Example 28, 9-chloro-N-(2-(piperidin-1-yl)ethyl)-5,6,7,8-tetrahydroacridine-3-carboxamide] the GI50 [1] was 8.8 µM, the IC50 (USP7) was 11.9 µM and the IC50 (USP8) was > 200 µM.
For O=C(c1ccc2c(Cl)c3c(nc2c1)CCCC3)N1CCCCC1 [Example 31, (9-chloro-5,6,7,8-tetrahydroacridine-3-yl)(piperidin-1-yl)methanone], the GI50 [1] was 11.4 µM, the IC50 (USP7) was 24.5 µM and the IC50 (USP8) was > 200 µM.
With O=C(NCC1CCN(Cc2ccccc2)CC1)c1ccc2c(Cl)c3c(nc2c1)CCCC3 [Example 32, N-((1-benzylpiperidin-4-yl)methyl)-9--chloro-5,6,7,8-tetrahydroacridine-3-carboxamide] the GI50 [1] was 3.1 µM, the IC50 (USP7) was 17.6 µM and the IC50 (USP8) was > 200 µM.
For O=C(NCCCN1CCc2ccccc2C1)c1ccc2c(Cl)c3c(nc2c1)CCCC3 [Example 39, 9-chloro-N-(3-(3,4-dihydroisoquinolin-2(1H)-yl)propyl)-5,6,7,8-tetrahydroacridine-3-carboxamide], the GI50 [1] was 7.6 µM, the IC50 (USP7) was 38.5 µM and the IC50 (USP8) was > 200 µM.
With O=C(NCC1CCN(CCc2ccccc2)CC1)c1ccc2c(Cl)c3c(nc2c1)CCCC3 [Example 34, 9-chloro-N-((1-phenethylpiperidin-4-yl)methyl)-5,6,7,8-tetrahydroacridine-3-carboxamide] the GI50 [1] was 2.8 µM, the IC50 (USP7) was 24.5 µM and the IC50 (USP8) was > 200 µM.
With CN1CCC(CN2CCN(C(=O)c3ccc4c(Cl)c5c(nc4c3)CCCC5)CC2)CC1 [Example 29, (9-chloro-5,6,7,8-tetrahydroacridine-3-yl)(4-((1-methylpiperidin-4-yl)methyl)piperazin-1-yl)methanone] the GI50 [1] was 7.3 µM, the IC50 (USP7) was 8.5 µM and the IC50 (USP8) was > 200 µM.
